Measured values taken from patent US20210254272A1, “TEXTILES HAVING ANTIMICROBIAL PROPERTIES” (Livinguard AG, priority 2015, published 2021).

Key:
[1] = Leaching test: 100 g fabric soaked in 10 liters stagnant distilled water, 3 days (72 hours); type: physicochemical; conditions: for Leaching of active ingredients / Leaching Test-Leaching of active ingredients: pad process; for Leaching of active ingredients: cured 180° C. 2 min; for Leaching Test-Leaching of active ingredients: 2 min
Outline: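 Test and control fabrics were soaked together in a closed jar. Leached substances in the water were then determined by standard analytical methods.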

[2] = Leaching: 10 grams fabric in 100 milliliters distilled water, 7 days, GC-MS; type: physicochemical
Experimental: To test for a potential leaching of the antimicrobial agents fixed to the textile material, the following test was performed. A test fabric of polyester 65%/cotton 35% with 210 g/m2 was treated with polyhexamethylenebiguanide (PHMB) 0.5%, silver chloride 0.075%, octadecylaminomethyl trihydroxysilylpropyl ammonium chloride (organosilane) 0.4%, and propiconazole 0.5%
The treated textile material was put into distilled water at a ratio of 1:10. Specifically, a fabric of 10 grams was soaked in 100 milliliters of distilled water. The fabric was incubated in the water for 7 days at room temperature, i.e. between 21 and 25° C.
Following said incubation time, the fabric was removed from the water and the exposed water was tested for the presence of the above five active ingredients using gas chromatography-mass spectrometry (GC-MS).

With `CCCCCCCCCCCCCCCCCC[N+](C)(C)CCC[Si](OC)(OC)OC` [Organosilane, dimethyloctadecyl[3-(trimethoxysilyl)propyl] ammonium chloride] the “Leaching of active ingredients (in ppm)” value ([1]; exhaust 80° C., 60 min, dosage 1% o.w.f (test up to 5% o.w.f)) was 3 ppm, the “Leaching of active ingredients (in ppm)” value ([1]; exhaust 80° C., 60 min, dosage 2% o.w.f) was 22 ppm and the “Leaching of active ingredients (in ppm)” value ([1]; exhaust 80° C., 60 min, dosage 3% o.w.f) was 38 ppm. The “Leaching of active ingredients (in ppm)” value ([1]; exhaust 80° C., 60 min, dosage 4% o.w.f) was 52 ppm, the “Leaching of active ingredients (in ppm)” value ([1]; exhaust 80° C., 60 min, dosage 5% o.w.f) was 72 ppm and the “Leaching of active ingredients (in ppm)” value ([1]; exhaust 80 ° C., solution dosage 1% o.w.f, process time 10 min) was 40 ppm. The “Leaching of active ingredients (in ppm)” value ([1]; exhaust 80 ° C., solution dosage 1% o.w.f, process time 20 min) was 29 ppm, the “Leaching of active ingredients (in ppm)” value ([1]; exhaust 80 ° C., solution dosage 1% o.w.f, process time 30 min) was 25 ppm and the “Leaching of active ingredients (in ppm)” value ([1]; exhaust 80 ° C., solution dosage 1% o.w.f, process time 40 min) was 18 ppm. For the same compound, the “Leaching of active ingredients (in ppm)” value ([1]; exhaust 80 ° C., solution dosage 1% o.w.f, process time 50 min) was 15 ppm, the “Leaching of active ingredients (in ppm)” value ([1]; exhaust 80 ° C., solution dosage 1% o.w.f, process time 55 min) was 6 ppm and the “Leaching of active ingredients (in ppm)” value ([1]; exhaust 80 ° C., solution dosage 1% o.w.f, process time 60 min) was 2 ppm. For the same compound, the “Leaching of active ingredients (in ppm)” value ([1]; exhaust 80 ° C., solution dosage 1% o.w.f, process time 70 min) was 3 ppm, the “Leaching of active ingredients (in ppm)” value ([1]; exhaust 80 ° C., solution dosage 1% o.w.f, process time 80 min) was 4 ppm and the “Leaching of active ingredients (in ppm)” value ([1]; exhaust 80 ° C., solution dosage 1% o.w.f, process time 90 min) was 7 ppm. The “limit on the quantity of the agent that can be adhered to the textile in a non-leaching or substantially non-leaching manner” value ([1]; from Experimental examples I.1 and I.4) was “about 0.7 % o.w.f”, the “Leaching of active ingredients” value ([1]; mixture 1 gm/lit each) was 11 ppm and the “Leaching of active ingredients” value ([1]; mixture 1 gm/lit each, after Washing) was 0.2 ppm. For the same compound, the “Leaching of active ingredients” value ([1]; mixture 5 gm/lit each) was 22 ppm, the “Leaching of active ingredients” value ([1]; mixture 5 gm/lit each, after Washing) was 0.5 ppm and the “Leaching of active ingredients” value ([1]; mixture 10 gm/lit each) was 32 ppm. The “Leaching of active ingredients” value ([1]; mixture 10 gm/lit each, after Washing) was 0.7 ppm, the “Leaching Test-Leaching of active ingredients” value (shortened to “Leaching Test-Leaching”) ([1]; single agent 5 gm/lit, curing 120° C.) was 8 ppm and the “Leaching Test-Leaching” value ([1]; single agent 5 gm/lit, curing 140° C.) was 6 ppm. For the same compound, the “Leaching Test-Leaching” value ([1]; single agent 5 gm/lit, curing 150° C.) was 5 ppm, the “Leaching Test-Leaching” value ([1]; single agent 5 gm/lit, curing 160° C.) was 3 ppm and the “Leaching Test-Leaching” value ([1]; single agent 5 gm/lit, curing 180° C.) was 1 ppm. For the same compound, the “Leaching Test-Leaching” value ([1]; single agent 10 gm/lit, curing 120° C.) was 17 ppm, the “Leaching Test-Leaching” value ([1]; single agent 10 gm/lit, curing 140° C.) was 13 ppm and the “Leaching Test-Leaching” value ([1]; single agent 10 gm/lit, curing 150° C.) was 10 ppm. The “Leaching Test-Leaching” value ([1]; single agent 10 gm/lit, curing 160° C.) was 9 ppm, the “Leaching Test-Leaching” value ([1]; single agent 10 gm/lit, curing 180° C.) was 1 ppm and the “Leaching of active ingredient (in ppm)” value ([1]; solution dosage 0.10% o.w.f, exhaust temperature 40° C., process time 60 min) was 0 ppm. The “Leaching of active ingredient (in ppm)” value ([1]; solution dosage 0.10% o.w.f, exhaust temperature 60° C., process time 60 min) was 0 ppm, the “Leaching of active ingredient (in ppm)” value ([1]; solution dosage 0.10% o.w.f, exhaust temperature 65° C., process time 60 min) was 0 ppm and the “Leaching of active ingredient (in ppm)” value ([1]; solution dosage 0.10% o.w.f, exhaust temperature 70° C., process time 60 min) was 0 ppm. The “Leaching of active ingredient (in ppm)” value ([1]; solution dosage 0.10% o.w.f, exhaust temperature 75° C., process time 60 min) was 0 ppm, the “Leaching of active ingredient (in ppm)” value ([1]; solution dosage 0.10% o.w.f, exhaust temperature 80° C., process time 60 min) was 0 ppm and the “Leaching of active ingredient (in ppm)” value ([1]; solution dosage 0.10% o.w.f, exhaust temperature 85° C., process time 60 min) was 1 ppm. For the same compound, the “Leaching of active ingredient (in ppm)” value ([1]; solution dosage 0.10% o.w.f, exhaust temperature 90° C., process time 60 min) was 2 ppm, the “Leaching of active ingredient (in ppm)” value ([1]; solution dosage 0.10% o.w.f, exhaust temperature 95° C., process time 60 min) was 3 ppm and the “Leaching of active ingredient (in ppm)” value ([1]; solution dosage 0.20% o.w.f, exhaust temperature 40° C., process time 60 min) was 0 ppm. The “Leaching of active ingredient (in ppm)” value ([1]; solution dosage 0.20% o.w.f, exhaust temperature 60° C., process time 60 min) was 0 ppm, the “Leaching of active ingredient (in ppm)” value ([1]; solution dosage 0.20% o.w.f, exhaust temperature 65° C., process time 60 min) was 0 ppm and the “Leaching of active ingredient (in ppm)” value ([1]; solution dosage 0.20% o.w.f, exhaust temperature 70° C., process time 60 min) was 0 ppm. For the same compound, the “Leaching of active ingredient (in ppm)” value ([1]; solution dosage 0.20% o.w.f, exhaust temperature 75° C., process time 60 min) was 0 ppm, the “Leaching of active ingredient (in ppm)” value ([1]; solution dosage 0.20% o.w.f, exhaust temperature 80° C., process time 60 min) was 0 ppm and the “Leaching of active ingredient (in ppm)” value ([1]; solution dosage 0.20% o.w.f, exhaust temperature 85° C., process time 60 min) was 3 ppm. For the same compound, the “Leaching of active ingredient (in ppm)” value ([1]; solution dosage 0.20% o.w.f, exhaust temperature 90° C., process time 60 min) was 3 ppm, the “Leaching of active ingredient (in ppm)” value ([1]; solution dosage 0.20% o.w.f, exhaust temperature 95° C., process time 60 min) was 4 ppm and the “Leaching of active ingredient (in ppm)” value ([1]; solution dosage 0.50% o.w.f, exhaust temperature 40° C., process time 60 min) was 0 ppm. The “Leaching of active ingredient (in ppm)” value ([1]; solution dosage 0.50% o.w.f, exhaust temperature 60° C., process time 60 min) was 2 ppm, the “Leaching of active ingredient (in ppm)” value ([1]; solution dosage 0.50% o.w.f, exhaust temperature 65° C., process time 60 min) was 1 ppm and the “Leaching of active ingredient (in ppm)” value ([1]; solution dosage 0.50% o.w.f, exhaust temperature 70° C., process time 60 min) was 1 ppm. For the same compound, the “Leaching of active ingredient (in ppm)” value ([1]; solution dosage 0.50% o.w.f, exhaust temperature 75° C., process time 60 min) was 1 ppm, the “Leaching of active ingredient (in ppm)” value ([1]; solution dosage 0.50% o.w.f, exhaust temperature 80° C., process time 60 min) was 1 ppm and the “Leaching of active ingredient (in ppm)” value ([1]; solution dosage 0.50% o.w.f, exhaust temperature 85° C., process time 60 min) was 4 ppm. The “Leaching of active ingredient (in ppm)” value ([1]; solution dosage 0.50% o.w.f, exhaust temperature 90° C., process time 60 min) was 5 ppm, the “Leaching of active ingredient (in ppm)” value ([1]; solution dosage 0.50% o.w.f, exhaust temperature 95° C., process time 60 min) was 6 ppm and the “Leaching of active ingredient (in ppm)” value ([1]; solution dosage 0.80% o.w.f, exhaust temperature 40° C., process time 60 min) was 0 ppm. The “Leaching of active ingredient (in ppm)” value ([1]; solution dosage 0.80% o.w.f, exhaust temperature 60° C., process time 60 min) was 3 ppm, the “Leaching of active ingredient (in ppm)” value ([1]; solution dosage 0.80% o.w.f, exhaust temperature 65° C., process time 60 min) was 3 ppm and the “Leaching of active ingredient (in ppm)” value ([1]; solution dosage 0.80% o.w.f, exhaust temperature 70° C., process time 60 min) was 2 ppm. For the same compound, the “Leaching of active ingredient (in ppm)” value ([1]; solution dosage 0.80% o.w.f, exhaust temperature 75° C., process time 60 min) was 1 ppm, the “Leaching of active ingredient (in ppm)” value ([1]; solution dosage 0.80% o.w.f, exhaust temperature 80° C., process time 60 min) was 1 ppm and the “Leaching of active ingredient (in ppm)” value ([1]; solution dosage 0.80% o.w.f, exhaust temperature 85° C., process time 60 min) was 5 ppm. The “Leaching of active ingredient (in ppm)” value ([1]; solution dosage 0.80% o.w.f, exhaust temperature 90° C., process time 60 min) was 6 ppm, the “Leaching of active ingredient (in ppm)” value ([1]; solution dosage 0.80% o.w.f, exhaust temperature 95° C., process time 60 min) was 8 ppm and the “Leaching of active ingredient (in ppm)” value ([1]; solution dosage 1.00% o.w.f, exhaust temperature 40° C., process time 60 min) was 0 ppm. For the same compound, the “Leaching of active ingredient (in ppm)” value ([1]; solution dosage 1.00% o.w.f, exhaust temperature 60° C., process time 60 min) was 6 ppm, the “Leaching of active ingredient (in ppm)” value ([1]; solution dosage 1.00% o.w.f, exhaust temperature 65° C., process time 60 min) was 6 ppm and the “Leaching of active ingredient (in ppm)” value ([1]; solution dosage 1.00% o.w.f, exhaust temperature 70° C., process time 60 min) was 3 ppm. For the same compound, the “Leaching of active ingredient (in ppm)” value ([1]; solution dosage 1.00% o.w.f, exhaust temperature 75° C., process time 60 min) was 2 ppm, the “Leaching of active ingredient (in ppm)” value ([1]; solution dosage 1.00% o.w.f, exhaust temperature 80° C., process time 60 min) was 1 ppm and the “Leaching of active ingredient (in ppm)” value ([1]; solution dosage 1.00% o.w.f, exhaust temperature 85° C., process time 60 min) was 7 ppm. The “Leaching of active ingredient (in ppm)” value ([1]; solution dosage 1.00% o.w.f, exhaust temperature 90° C., process time 60 min) was 9 ppm, the “Leaching of active ingredient (in ppm)” value ([1]; solution dosage 1.00% o.w.f, exhaust temperature 95° C., process time 60 min) was 10 ppm and the “Extracted water Conc, ppm” value [2] was “BDL (BDL-below detection limit Detection limit: 1 parts per million (ppm))”.
